Assay results: BindingDB's records for doi:10.1016/0166-4328(96)00089-7 (Glaxo Research and Development, 1996)
pKi: −log10 of the molar value.

Experiments:
[1] = molecular target: 5-hydroxytryptamine receptor 5A (Homo sapiens, UniProt P47898)
[2] = molecular target: T1, 5-hydroxytryptamine receptor 3A (Rattus norvegicus, UniProt P35563)
T1 sequence (P35563 whole entry): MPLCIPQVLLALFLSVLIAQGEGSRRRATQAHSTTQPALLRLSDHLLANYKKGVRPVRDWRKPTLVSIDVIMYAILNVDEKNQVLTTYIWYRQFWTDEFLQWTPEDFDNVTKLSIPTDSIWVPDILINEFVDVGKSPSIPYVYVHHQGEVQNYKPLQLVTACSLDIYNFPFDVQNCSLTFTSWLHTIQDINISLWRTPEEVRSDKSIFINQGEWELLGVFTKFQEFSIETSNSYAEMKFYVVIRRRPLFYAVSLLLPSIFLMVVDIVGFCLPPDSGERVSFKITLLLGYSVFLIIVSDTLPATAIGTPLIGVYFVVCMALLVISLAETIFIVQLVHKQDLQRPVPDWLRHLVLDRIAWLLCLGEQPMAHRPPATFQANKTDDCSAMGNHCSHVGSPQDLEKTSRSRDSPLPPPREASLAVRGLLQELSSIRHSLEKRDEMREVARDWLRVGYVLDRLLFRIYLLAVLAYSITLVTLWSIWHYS

[3] = molecular target: 5-hydroxytryptamine receptor 2A (Rattus norvegicus, UniProt P14842)
5-hydroxytryptamine receptor 2A, sequence (P14842 whole entry): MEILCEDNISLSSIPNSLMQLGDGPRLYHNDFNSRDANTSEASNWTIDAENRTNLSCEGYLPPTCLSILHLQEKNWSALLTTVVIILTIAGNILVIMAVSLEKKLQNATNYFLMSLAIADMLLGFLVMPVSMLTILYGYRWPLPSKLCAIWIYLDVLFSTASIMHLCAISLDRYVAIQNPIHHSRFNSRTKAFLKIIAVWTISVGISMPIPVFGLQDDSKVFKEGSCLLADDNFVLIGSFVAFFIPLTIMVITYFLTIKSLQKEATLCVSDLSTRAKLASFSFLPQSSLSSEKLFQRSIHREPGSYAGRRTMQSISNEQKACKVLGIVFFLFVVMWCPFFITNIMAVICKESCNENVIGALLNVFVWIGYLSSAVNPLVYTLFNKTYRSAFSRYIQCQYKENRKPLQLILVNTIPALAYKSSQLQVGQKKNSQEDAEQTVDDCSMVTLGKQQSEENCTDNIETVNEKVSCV

[4] = molecular target: T2, 5-hydroxytryptamine receptor 2C (Sus scrofa, UniProt G7ZKZ7)
T2 sequence (G7ZKZ7 whole entry): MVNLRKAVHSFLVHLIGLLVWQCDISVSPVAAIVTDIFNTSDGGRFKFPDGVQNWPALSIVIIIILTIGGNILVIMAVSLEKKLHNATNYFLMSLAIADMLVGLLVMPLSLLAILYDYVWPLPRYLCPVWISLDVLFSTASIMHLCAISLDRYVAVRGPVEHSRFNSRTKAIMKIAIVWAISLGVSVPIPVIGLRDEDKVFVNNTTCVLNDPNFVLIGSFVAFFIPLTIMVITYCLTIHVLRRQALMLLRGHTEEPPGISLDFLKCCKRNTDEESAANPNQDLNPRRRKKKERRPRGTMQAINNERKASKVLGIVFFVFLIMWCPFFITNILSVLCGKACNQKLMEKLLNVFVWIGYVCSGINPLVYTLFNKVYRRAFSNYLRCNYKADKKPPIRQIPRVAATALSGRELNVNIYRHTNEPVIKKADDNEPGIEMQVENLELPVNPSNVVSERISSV

[5] = molecular target: 5-hydroxytryptamine receptor 4 (Cavia porcellus, UniProt O70528)
5-hydroxytryptamine receptor 4, sequence (O70528 whole entry): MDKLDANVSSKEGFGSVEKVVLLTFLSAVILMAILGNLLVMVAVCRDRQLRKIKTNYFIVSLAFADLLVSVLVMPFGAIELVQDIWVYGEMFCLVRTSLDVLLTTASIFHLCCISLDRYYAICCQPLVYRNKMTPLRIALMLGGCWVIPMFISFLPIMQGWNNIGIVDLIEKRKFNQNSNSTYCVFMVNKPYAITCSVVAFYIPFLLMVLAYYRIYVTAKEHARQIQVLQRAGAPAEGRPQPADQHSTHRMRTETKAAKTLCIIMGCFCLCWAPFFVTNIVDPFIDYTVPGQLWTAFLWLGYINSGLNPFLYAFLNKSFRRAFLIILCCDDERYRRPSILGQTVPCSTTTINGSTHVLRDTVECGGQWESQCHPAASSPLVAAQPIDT

5-hydroxytryptamine receptor 5A, sequence (P47898 whole entry): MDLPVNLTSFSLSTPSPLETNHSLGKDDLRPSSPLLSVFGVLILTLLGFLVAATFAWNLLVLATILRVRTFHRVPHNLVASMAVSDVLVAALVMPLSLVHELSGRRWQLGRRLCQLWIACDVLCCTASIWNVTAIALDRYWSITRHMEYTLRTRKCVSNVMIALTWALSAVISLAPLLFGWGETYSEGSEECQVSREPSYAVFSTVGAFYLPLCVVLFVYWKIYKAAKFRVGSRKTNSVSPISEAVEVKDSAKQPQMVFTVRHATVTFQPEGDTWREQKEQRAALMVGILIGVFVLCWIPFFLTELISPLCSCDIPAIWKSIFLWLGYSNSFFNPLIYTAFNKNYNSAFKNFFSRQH

In the case of `COc1ccc(NC(=O)c2ccc(-c3ccc(-c4noc(C)n4)cc3C)cc2)cc1N1CCN(C)CC1` [SMR001230745], the pKi [1] was 5.20, the pKi [2] was 5.20 and the pKi [3] was 7.40. The pKi [4] was 6.20 and the pKi [5] was less than 5.00.
